Data published in paper PMC5608758, “A brain-targeting lipidated peptide for neutralizing RNA-mediated toxicity in Polyglutamine Diseases” (Scientific Reports, 2017).
“Also recorded” adds a separate entry of the source. Read-outs that look alike come from different tables or passages of the source. Residues, ends and D or L forms follow the SMILES beside them. *: point of attachment. Palmitoyl = CCCCCCCCCCCCCCCC(=O)*

Experiments:
[1] = test system: EGFP CAG78 RNA-expressing HEK293 cells; assay type: cell-based; details: for suppression of expanded CAG RNA-induced cell death: LDH assay
Method: (§1) HEK293 cells were cultured at 37 °C with 5% CO2 in DMEM supplemented with 10% FBS and 1% penicillin-streptomycin. Primary rat cortical neurons were isolated and cultured as previously described. Transient transfection of HEK293 cells was performed using Lipofectamine 2000 (Life Technologies). P3V8 were delivered to HEK293 cells using the DeliverX (DX) Peptide Transfection Kit (Affymetrix) 4 hr after DNA transfection. At least two batches of independently synthesized peptides were used in the experiments.
HEK 293 cells were seeded on a 24-well plate at a density of 0.5 × 10^5, and pEGFP CAG78 DNA construct was used to transfect the cells. […] […] Seventy-two hours after treatment, LDH enzyme activity in the cell culture medium was measured as described before. Experimental groups were normalized to the untransfected control. After normalization, data were analyzed using the dose response-inhibition curve (nonlinear regression-variable slope) to determine the IC50 value (Prism6 software, GraphPad Software, Inc.). Each experiment was repeated at least 3 times.

[2] = test system: DsRed CAG0 Drosophila; experiment: Pseudopupil assay in control flies (toxicity); assay type: in vivo; details: P3V8 at up to 50 µM
Method: Flies were raised at 21.5 °C on cornmeal medium supplemented with dry yeast. Fly lines bearing UAS-DsRed CAG0 and UAS-DsRed CAG100 were kind gifts of Professor Nancy Bonini (University of Pennsylvania, USA). The gmr-GAL4 fly line was obtained from Bloomington Drosophila Stock Center. […] Pseudopupil assay was performed on 12 day-old adult flies as mentioned previously. Images were captured by SPOT Insight CCD camera controlled by the SPOT Advanced software (Diagnostic instruments Inc.). Image processing was performed using the Adobe Photoshop CS software (Adobe). Each experiment was repeated at least 3 times (n = 10 fly heads), and consistent results were obtained. For viability test of wild-type flies from egg to adult stage, eggs born within 5 hr were collected and cultured in fly food containing 10 or 50 μM of respective peptides at 21.5°C. Viability from egg-to-adult was calculated as the number of adult flies collected divided by the number of eggs examined. Each experiment was repeated for three times (at least 130 eggs were examined in each group). Two batches of independently synthesized peptides were used in the experiments.

[3] = test system: wild type Drosophila; experiment: Egg-to-adult viability of wild type flies; assay type: in vivo; details: fly food containing 10 or 50 µM peptide, 21.5 °C; 3 independent experiments
Method: Flies were raised at 21.5 °C on cornmeal medium supplemented with dry yeast. Fly lines bearing UAS-DsRed CAG0 and UAS-DsRed CAG100 were kind gifts of Professor Nancy Bonini (University of Pennsylvania, USA). The gmr-GAL4 fly line was obtained from Bloomington Drosophila Stock Center. For pseudopupil assay, third instar larvae were fed with various amount of respective peptides dissolved in 2% sucrose solution for 2 hr and then continued to culture in standard fly food at 21.5 °C[38]. Pseudopupil assay was performed on 12 day-old adult flies as mentioned previously. Images were captured by SPOT Insight CCD camera controlled by the SPOT Advanced software (Diagnostic instruments Inc.). Image processing was performed using the Adobe Photoshop CS software (Adobe). Each experiment was repeated at least 3 times (n = 10 fly heads), and consistent results were obtained. […] Viability from egg-to-adult was calculated as the number of adult flies collected divided by the number of eggs examined. […]
viability of wild type Drosophila from egg to adult. […] Viability from egg to adult was calculated as the number of adult flies collected divided by the number of eggs examined. Data are expressed as mean ± S.E.M. for 3 independent experiments. […]

[4] = test system: expanded MJD CAG78 RNA; experiment: Isothermal titration calorimetry binding assay, expanded CAG RNA
Method: (§2) Experiments were carried out using a MicroCal iTC200 isothermal titration calorimeter (GE Healthcare) at 25 °C. Data were analyzed using the Origin® scientific plotting software version 7 (Microcal Software Inc.). All RNAs and peptides were dissolved in binding buffer (20 mM MOPS, pH 7.0; 300 mM NaCl) and 0.7 mM of peptide was titrated into 0.5 µM of RNA for each experiment. The concentration of RNA was estimated with appropriate extinction coefficients at 260 nm on a Nanodrop 2000 (Thermo Scientific). A reference power of 8 μcal/s was used with an initial 0.5 µl of injection of peptide followed by 2 µl for all subsequent titrations points with a 60 sec initial equilibrium delay and 150 sec pause between injections. The samples were stirred at a speed of 1000 rpm throughout the experiment. The thermal titration data were fitted to the ‘one binding site model’ to determine the dissociation constant (KD). Each experiment was repeated at least 3 times with consistent results obtained.

[5] = biological target: MJD CAG27 RNA; experiment: Isothermal titration calorimetry binding assay, unexpanded CAG RNA; details: ITC
Method: as §2

[6] = biological target: MJD CAA/G78 RNA; experiment: Isothermal titration calorimetry binding assay, expanded CAA/G RNA; details: ITC; 0.7 mM P3V8 titrated into 0.5 µM MJD CAA/G78 RNA; one binding site model; mean ± S.E.M., at least 3 independent experiments
Method: as §2

[7] = test system: pre-45s rRNA in EGFP CAG78 RNA-expressing HEK293 cells; experiment: Real-time PCR of pre-45s rRNA level in cells; assay type: cell-based; details: peptide transfected with DeliverX
Method: as §1
RNA was extracted from cells or ten 12 day-old adult fly heads by Trizol reagent (Life Technologies), and 1 μg of purified RNA was then used for reverse-transcription using the ImPromII™ Reverse Transcription System (Promega). Random hexamer (Roche) was used as primers in reverse transcription. Taqman gene expression assays were performed on an ABI 7500 Real-time PCR system and data were analyzed as previously described. The following probes were used: pre-45s rRNA (Assay ID: AILJIZM), pre-rRNA (Assay ID: AIMSG5U), Drosophila GAPDH (Assay ID: Dm01841186) and human actin (Assay ID: Hs99999903_m1). Each experiment was repeated at least 3 times.

CCCCCCCCCCCCCCCC(=O)N[C@@H](CC(=O)O)C(=O)NCC(=O)N[C@@H](CCCCN)C(=O)N[C@@H](CO)C(=O)N[C@@H](CCCCN)C(=O)NCC(=O)N[C@H](C(=O)N[C@@H](C)C(=O)N[C@@H](Cc1ccc(O)cc1)C(=O)N[C@H](C(=O)N[C@@H](CCC(=O)O)C(=O)N[C@@H](Cc1ccccc1)C(=O)N[C@@H](CCCCN)C(N)=O)[C@@H](C)CC)[C@@H](C)CC [L1P3V8] (Palmitoyl-DGKSKGIAYIEFK-NH2)
IC50 ([1]; read-out: IC50, inhibition of cell death (LDH enzyme activity reduced by 50%), peptide added without DeliverX immediately after plasmid transfection, LDH 72 hr after treatment, mean ± S.E.M., at least 3 experiments): ~100 nM
toxic effect on control flies [2]: no cytotoxic effects
egg-to-adult viability [3]: did not affect; also recorded: no obvious alteration

Ac-DGKSKGIAYIEFK-NH2 [P3V8]
improvement of binding affinity for expanded CAG RNA over P3 ([4]; ITC KD relative to P3): more than 20 fold
Kd ([4]; ITC, 25 °C, 20 mM MOPS pH 7.0, 300 mM NaCl, 0.7 mM peptide titrated into 0.5 µM MJD CAG78 RNA, one binding site model, mean ± S.E.M., at least 3 independent experiments): 330 ± 40 nM
Kd ([5]; 0.7 mM P3V8 titrated into 0.5 µM MJD CAG27 RNA, one binding site model, mean ± S.E.M., at least 3 independent experiments): 2190 ± 270 nM
lower affinity for unexpanded RNA or expanded CAA/G RNA than for expanded CAG RNA ([5]; MJD CAG27 RNA or MJD CAA/G78 RNA versus MJD CAG78 RNA): 6–9 fold
Kd [6]: 2940 ± 960 nM
suppression of expanded CAG RNA-induced cell death ([1]; peptide alone, without DeliverX): did not exert any cellular effect
suppression of expanded CAG RNA-induced cell death ([1]; peptide transfected with DeliverX 4 hr after plasmid transfection): could effectively alleviate the cytotoxicity
restoration of pre-45s rRNA level [7]: dose-dependent restoration
